Laboratory results reported in patent US9603859B2, “Methods and products for increasing the rate of healing of tissue wounds” (BRIGHAM YOUNG UNIVERSITY, priority 2011, dated 2017).

Assays:
[1] = tested on: chronic non-healing oral cutaneous fistula; assay: Treatment of chronic non-healing oral cutaneous fistula in a horse; format: in vivo
Source text: A horse with a chronic non-healing oral cutaneous fistula was first treated with two prior art treatments with no success. The first treatment was with an aqueous spray of Vetericyn (0.007% hypochlorite) for a period of 7 days. […]

[2] = tested on: torn right front shoulder wound; assay: Treatment of torn right front shoulder wound in a horse; format: in vivo; conditions: 0.04% solution in water sprayed twice a day
Method: This wound occurs commonly in horses and usually takes 3 to 6 months to heal. Typically this wound will result in a significant loss of muscle in the region. This wound was treated twice a day with a 0.04% solution of CSA-44 in water. The tissue treatment composition was applied by spraying sufficient composition to wet the entire surface of the wound.

[3] = tested on: laceration to left hind cannon region; assay: Treatment of laceration to left hind cannon region of a broodmare; format: in vivo; conditions: horse; 0.04% solution in water twice daily; no wrap
Method: A reining broodmare in Texas was involved in an accident resulting in a laceration to her left hind cannon region. The wound was 3 inches in length and 2 inches wide. The laceration extended all the way to the cannon bone, exposing the periosteum. This wound was also treated with a 0.04% solution of CSA-44 in water twice daily. No wrap was applied (i.e., no immobilization). The wound closed in 11 days with normal hair growth at 30 days. This type of wound would usually require aggressive wraps for 3 months with the possibility of other procedures being necessary for the excessive granulation tissue that commonly develops.

[4] = tested on: fungal infection of the skin (summer itch); assay: Treatment of fungal infection of the skin (summer itch) in a show mare; format: in vivo; conditions: horse; 0.04% solution in water twice daily
Source text: A show mare developed an uncontrollable fungal infection of the skin. This malady is commonly referred to as summer itch. A 0.04% solution of CSA-44 in water was used twice daily for 3 weeks resulting in complete regrowth of normal skin and hair. Normal treatment time periods for this problem usually range from 3 to 4 months.

[5] = tested on: scratches (fungal infection of the lower extremities with secondary bacterial infection); assay: Treatment of extreme case of scratches in a horse; format: in vivo
Source text: A horse with an extreme case of scratches was successfully healed using CSA. Scratches is a fungal infection of the lower extremities in horses. This infection usually results in not only a fungal but also a secondary bacterial infection. In this case, the horse developed severe and debilitating granulation tissue of the ankle resulting in poor mobility due to cracking and bleeding. […] The chronic infection persisted for over two years despite the multiple attempts to treat with an antimicrobial. Due to the debilitating wound the horse was slated for slaughter. […] Normal hair growth and tissue was present in 4 weeks.

primary human MSC cells = assay: Wound healing array q-PCR gene expression in mesenchymal stem cells; format: cell-based; conditions: 8 hours treatment
Source text: To determine the role of synthetic Ceragenins CSA-13, 44 and 90 in wound healing using mesenchymal stem cells (MSC), targeted mRNA panels from SABiosciences, and primary cells from Lonza were selected. Cells were purchased from Lonza.com and used fresh for each test using recommended media and culture conditions. After treatment, mRNA was isolated using Qiagen RNeasy Mini Kit®, and quantified using a NanoDrop 2000® by UV at 260 nm and 260/280 ratio for purity. cDNA was made using a First Strand Kit® from SABiosciences and processed for real time PCR using a kit from the same company for selected analysis of wound healing pathways. Results from q-PCR were uploaded to the SABiosciences site and to Ingenuity.com web site for analysis and pathway mapping. SABiosciences wound healing array plates (Cat# PAHS-121) and innate/acquired immune response plates (PAHS-052) were used. These arrays are fully validated when used as recommended. On day 1, primary human MSC cells were plated at 200,000 cells/well using 6-well plates with 3 ml of recommended media—hMSC Basal Medium+BulletKit (50 ml Growth Supplement, 10 ml L-Glutamine and 0.5 ml Gentamicin Sulfate Amphotercin-B) for 24 hours. Only early passages of cells were used, and never from frozen stock. On day 2, cells were treated with compounds dissolved in DMSO diluted 1:1000 or more to avoid effects of the solvent. Final testing concentration for CSA-13 was 5.0 μM. Treatment lasted 8 hours, and was followed by RNA isolation using QIAGEN RNeasy Mini Kit® (74104). RNA was measured at 260/280 nm using a NanoDrop 2000® and normalized to 2.4 ng per well, cDNA preparation was done using QIAGEN First Strand kit 330401. q-PCR was run as absolute quantification and threshold set at 0.1 units. Dendritic cells were plated at 500,000 cells/well using 24-well plate with 500 ul of Lonza LGM-3 Complete Growth Medium with and without compound. Treatment lasted 8 hours, and was followed by RNA isolation using QIAGEN RNeasy Mini Kit® (74104). RNA was measured at 260/280 nm using NanoDrop2000® and normalized to 2.4 ng per well, cDNA preparation was done using QIAGEN First Strand kit 330401. PCR was run as absolute quantification and threshold set at 0.1 units. For the wound healing array, strong upregulation of growth factors such as HB-EGF and cell migration factors such as MMP1 and CXCL2 were found, indicating a clear potential for CSA as a modulator of wound healing. Additional gene expression data is provided in Tables 1-3 for CSA-13, 44, and 90, respectively.

[6] = tested on: Mixed-species biofilms of S. aureus and P. aeruginosa; assay: Mixed-species biofilm susceptibility, live/dead staining; format: cell-based; conditions: biofilms grown in collagen-coated plates for 24 hours
HaCaT migration = HaCaT migration by ECIS (2D wound healing); format: cell-based, human
Method: Standard microdilution methods were used to determine minimum inhibitory concentration (MIC) and minimum bactericidal concentration (MBC) of test agents (peptides and peptide-mimics) against drug resistant Staphylococcus. aureus (TCH1516) and Pseudomonas. aeruginosa (PAO1). […] Cytotoxicity of test agents to human immortalized keratinocytes (HaCaTs) was assessed using 3-[4,5-dimethylthiazol-2-yl]-2,5-diphenyl tetrazolium bromide (MTT). Promotion of HaCaT migration by test agents was tested using electric cell-substrate impedance sensing (ECIS®), which induced 2D wound healing. The ability of test agents to stimulate angiogenesis was evaluated using matrigel-induced tube formation of human vein endothelial cells (HUVECs).

**Q.** Which “time to closure of the fistula and healthy tissue” value ([1]; 0.04% CSA-44 in water sprayed once daily) does the source give for `CCCCCCCCOC(=O)CC[C@@H](C)[C@H]1CC[C@H]2[C@@H]3[C@H](OC(=O)CCN)C[C@@H]4C[C@H](OC(=O)CCN)CC[C@]4(C)[C@H]3C[C@H](OC(=O)CCN)[C@]12C` [CSA-44] here?
**A.** The value was 7 days.

**Q.** What about the “outcome of wound treatment” value ([1]; Vetericyn (0.007% hypochlorite) aqueous spray 7 days, Furacin Salve daily 5 days, 0.04% CSA-44 in water sprayed once daily 7 days) of the same compound?
**A.** Its value is “successfully treated”.

**Q.** And the “muscle loss after healing” value [2]?
**A.** The value was “without any apparent muscle loss”.

**Q.** And the “time until wound closed and completely healed” value ([2]; wound 4 x 6 inches, 3 inches deep)?
**A.** The value was 28 days.

**Q.** And the “time of normal hair growth” value [3]?
**A.** Its value is 30 days.

**Q.** What about the “time until wound closed” value [3] of the same compound?
**A.** Its value is 11 days.

**Q.** What about the “treatment time to complete regrowth of normal skin and hair” value [4] of the same compound?
**A.** The value was 3 weeks.

**Q.** What about the “time until normal hair growth and tissue present” value ([5]; 0.04% in water sprayed twice daily) of the same compound?
**A.** The value was 4 weeks.

**Q.** What about the “outcome of wound treatment” value ([5]; CSA-44 0.04% in water sprayed twice daily for four weeks, comparators before CSA) of the same compound?
**A.** The value was “successfully treated”.

**Q.** And the “Fold Regulation ACTA2” value (primary human MSC cells)?
**A.** The value was −1.9377.

**Q.** And the “Fold Regulation ACTB” value (primary human MSC cells)?
**A.** The value was −1.7981.

**Q.** And the “Fold Regulation CCL2” value (primary human MSC cells)?
**A.** Its value is −3.1925.

**Q.** And the “Fold Regulation CDH1” value (primary human MSC cells)?
**A.** The value was −2.7158.

**Q.** And the “Fold Regulation COL1A2” value (primary human MSC cells)?
**A.** The value was 1.5483.

**Q.** And the “Fold Regulation COL3A1” value (primary human MSC cells)?
**A.** Its value is 1.7385.

**Q.** What about the “Fold Regulation COL4A3” value (primary human MSC cells) of the same compound?
**A.** The value was −2.4845.

**Q.** And the “Fold Regulation CTGF” value (primary human MSC cells)?
**A.** Its value is −24.5295.

**Q.** What about the “Fold Regulation CTSK” value (primary human MSC cells) of the same compound?
**A.** Its value is 1.6388.

**Q.** And the “Fold Regulation CTSL2” value (primary human MSC cells)?
**A.** Its value is 1.7924.

**Q.** What about the “Fold Regulation EGFR” value (primary human MSC cells) of the same compound?
**A.** Its value is 1.5364.

**Q.** And the “Fold Regulation FGF7” value (primary human MSC cells)?
**A.** The value was 4.84.

**Q.** And the “Fold Regulation HGF” value (primary human MSC cells)?
**A.** The value was 3.1098.

**Q.** And the “Fold Regulation IGF1” value (primary human MSC cells)?
**A.** Its value is 1.6877.

**Q.** What about the “Fold Regulation ITGB6” value (primary human MSC cells) of the same compound?
**A.** The value was 1.6323.

**Q.** What about the “Fold Regulation MMP9” value (primary human MSC cells) of the same compound?
**A.** The value was 1.5543.

**Q.** And the “Fold Regulation SERPINE1” value (primary human MSC cells)?
**A.** Its value is −2.9618.

**Q.** What about the “Fold Regulation TGFBR3” value (primary human MSC cells) of the same compound?
**A.** The value was −2.0462.

**Q.** And the “Fold Regulation TIMP1” value (primary human MSC cells)?
**A.** Its value is 1.6126.

**Q.** And the “Fold Regulation WISP1” value (primary human MSC cells)?
**A.** The value was −1.9722.

**Q.** What about the “Fold Regulation ANGPT1” value (primary human MSC cells; CSA-13 at 5.0 μM) of the same compound?
**A.** Its value is −2.0857.

**Q.** What about the “Fold Regulation CCL7” value (primary human MSC cells; CSA-13 at 5.0 μM) of the same compound?
**A.** The value was 2.1961.

**Q.** What about the “Fold Regulation CSF2” value (primary human MSC cells; CSA-13 at 5.0 μM) of the same compound?
**A.** The value was −1.8551.

**Q.** What about the “Fold Regulation CXCL2” value (primary human MSC cells; CSA-13 at 5.0 μM) of the same compound?
**A.** Its value is 14.3964.

**Q.** What about the “Fold Regulation F13A1” value (primary human MSC cells; CSA-13 at 5.0 μM) of the same compound?
**A.** Its value is 2.0963.

**Q.** And the “Fold Regulation FGF2” value (primary human MSC cells; CSA-13 at 5.0 μM)?
**A.** The value was −1.6016.

**Q.** And the “Fold Regulation FGF10” value (primary human MSC cells; CSA-13 at 5.0 μM)?
**A.** Its value is 2.2811.

**Q.** What about the “Fold Regulation HBEGF” value (primary human MSC cells; CSA-13 at 5.0 μM) of the same compound?
**A.** The value was 3.5463.

**Q.** What about the “Fold Regulation IL2” value (primary human MSC cells; CSA-13 at 5.0 μM) of the same compound?
**A.** The value was 2.1928.

**Q.** And the “Fold Regulation IL6” value (primary human MSC cells; CSA-13 at 5.0 μM)?
**A.** The value was 4.0387.

**Q.** What about the “Fold Regulation IL10” value (primary human MSC cells; CSA-13 at 5.0 μM) of the same compound?
**A.** Its value is −2.0128.

**Q.** And the “Fold Regulation ITGA2” value (primary human MSC cells; CSA-13 at 5.0 μM)?
**A.** The value was 16.0648.

**Q.** What about the “Fold Regulation ITGB3” value (primary human MSC cells; CSA-13 at 5.0 μM) of the same compound?
**A.** Its value is −1.5802.

**Q.** And the “Fold Regulation MMP1” value (primary human MSC cells; CSA-13 at 5.0 μM)?
**A.** Its value is 68.9688.

**Q.** And the “Fold Regulation PLAT” value (primary human MSC cells; CSA-13 at 5.0 μM)?
**A.** Its value is −1.754.

**Q.** What about the “Fold Regulation PLAU” value (primary human MSC cells; CSA-13 at 5.0 μM) of the same compound?
**A.** Its value is 1.6131.

**Q.** What about the “Fold Regulation PLAUR” value (primary human MSC cells; CSA-13 at 5.0 μM) of the same compound?
**A.** Its value is 2.5454.

**Q.** And the “Fold Regulation PTGS2” value (primary human MSC cells; CSA-13 at 5.0 μM)?
**A.** The value was 48.6907.

**Q.** What about the “Fold Regulation VEGFA” value (primary human MSC cells; CSA-13 at 5.0 μM) of the same compound?
**A.** The value was 4.6052.

**Q.** With “LL-37: a human peptide and positive control (LLGDFFRKSKEKIGKEFKRIVQRIKDFLRNLVPRTES; Antibacterial peptide LL-37; UniProt P49913 134-170, looked up)” as the compound, how does the anti-biofilm activity [6] read?
**A.** The anti-biofilm activity was “showed anti-biofilm activity”.

**Q.** What about the “induction of wound healing” value (HaCaT migration) of the same compound?
**A.** The value was “induced wound healing”.
